Where a name gives a salt, the structure may show the parent alone.
Legend:
[1] = tested on: T. mentagrophytes, (ATCC 24953); assay: Agar diffusion plate assay, zone of inhibition (Example 9); type: cell-based, Trichophyton mentagrophytes; conditions: undiluted composition
From the text: For the agar diffusion assay, the standardized inoculum of conidia is applied to the surface of a Potato Dextrose Agar plate and allowed to dry. Wells are then cut into the agar and the test composition is put into the wells and allowed to diffuse and antifungal activity is evidenced by zones of growth inhibition (i.e., area remaining clear, lacking growth) on the surface of the plates measured in millimeters (mm) diameter.
The fungicidal activity of terbinafine hydrochloride against the dermatophytic fungi, T. mentagrophytes, (ATCC 24953), is illustrated in the modified NCCLS broth dilution assay described in Example 8, based on minimum inhibitory concentration (MIC) and minimum fungicidal concentration (MFC) as well as an agar diffusion plate assay measuring the zones of inhibition.
MIC assay was determined using the broth dilution procedure described in Example 8 performed in microtiter wells with RPMI 1604 as the diluent. Serial dilutions of each test composition were made in RPMI diluent, and then 100 μl of undiluted test composition and of each diluted composition was added to a respective microtiter well. Conidial suspension (100 μl) was then added to each well and the plates were incubated at an incubation temperature of about 35° C. for an incubation period of 4 days dermatophytes, and 48 hours for yeasts. […], undiluted test composition was added to wells cut into the agar and allowed to diffuse. The MIC endpoint was the lowest concentration that inhibited 80% of fungal growth as compared to the growth control. The MFC endpoint was the lowest concentration to produce 1-2 colonies. The zone of inhibition size was measured (diameter of area remaining clear, i.e., lacking growth).

[2] = tested on: T. mentagrophytes, (ATCC 24953); assay: Modified NCCLS M38-A broth microdilution MIC assay; type: cell-based, Trichophyton mentagrophytes
From the text: The broth microdilution method was a modification of a NCCLS M38-A standard method for the susceptibility testing of conidium-forming filamentous fungi of the National Committee for Clinical Laboratory Standards (NCCLS). The modified method was developed at the Center for Medical Mycology, University Hospitals of Cleveland, Cleveland, Ohio, based on the method described in Jessup, et al., “Antifungal Susceptibility Testing of Dermatophytes: Establishing a Medium for Inducing Conidial Growth and Evaluation of Susceptibility of Clinical Isolates,” Journal of Clinical Microbiology, 38, 341-344, published by the American Society for Microbiology (2000), the disclosures of which are incorporated herein by reference. Based on a multicenter study of the reproducibility of the modified method for testing dermatophytes, adoption of the modified method as an amendment to the NCCLS M38-A standard has been proposed. […]
Dermatophyte isolates are subcultured onto Potato Dextrose Agar (PDA) and incubated at a temperature of about 30° C. for a period of about 4 to about 5 days or until good conidiation is produced. […] The suspension is allowed to settle for about 5 to about 10 minutes and the conidia is counted using a hemocytometer. […]
MIC assay was determined using the broth dilution procedure described in Example 8 performed in microtiter wells with RPMI 1604 as the diluent. […]

[3] = tested on: T. mentagrophytes, (ATCC 24953); assay: MFC assay by subculturing the microtiter wells from the MIC test; type: cell-based, Trichophyton mentagrophytes
Protocol: Dermatophyte isolates are subcultured onto Potato Dextrose Agar (PDA) and incubated at a temperature of about 30° C. for a period of about 4 to about 5 days or until good conidiation is produced. T rubrum isolates are subcultured onto cereal (oatmeal) agar instead of PDA in order to induce conidia production. A suspension of conidia in sterile saline is made by gently swabbing the colony surface with a sterile swab. The suspension is allowed to settle for about 5 to about 10 minutes and the conidia is counted using a hemocytometer. Working suspensions of conidia are prepared in 10 ml RPMI 1604 (Difco Laboratories) medium to a final concentration of 1 to 3×10^3 CFU/ml. Yeast controls are subcultured onto PDA and incubated at a temperature of about 35° C. for about 48 hours. Yeast inocula are prepared to a final concentration of 0.5 to 2.5×10^3 CFU/ml. For MIC assay, each drug concentration well and growth control well is inoculated with 100 microliters of cell suspension, and the final volume in each microtiter well is 200 microliters. The dermatophyte plates are incubated at a temperature of about 35° C. for 4 days (yeast controls for 48 hours). […]
MIC assay was determined using the broth dilution procedure described in Example 8 performed in microtiter wells with RPMI 1604 as the diluent. […] The zone of inhibition size was measured (diameter of area remaining clear, i.e., lacking growth).

[4] = Release/retention of terbinafine hydrochloride from treated human nail clippings in ethyl alcohol; type: in vitro ADME; conditions: FIG. 2
Protocol: The terbinafine-treated nail clippings were then separately recovered from each test solution and rinsed with 10 mL of ethyl alcohol to remove antifungal liquid from the surface cavity. The rinsed nail clippings from each test were then separately immersed in another 5 mL portion of anhydrous ethyl alcohol to assess the rate of terbinafine release from the nail structure, by determining the concentration of terbinafine hydrochloride released as a function of time using the HPLC technique described above.

[5] = In vitro diffusion of terbinafine across a nail membrane (human nail clippings); type: in vitro ADME; conditions: applied as a 10% solution in ethanol

For `CCCCCCCCCCCCOC(=O)C(C)N(C)C.Cl` (stereo not drawn) [9(E), dodecyl-2-(N,N-dimethylamino) isopropionate hydrochloride], the “Zone size (mm)” value [1] was “Zero” and the “efficacy as judged from MIC assays” value ([2]; in words) was “at most some weak efficacy”.
With `CN(C/C=C/C#CC(C)(C)C)Cc1cccc2ccccc12` [9(F), terbinafine hydrochloride] the “Zone size (mm)” value ([1]; hydrochloride) was 80 mm.
For `CN(C/C=C/C#CC(C)(C)C)Cc1cccc2ccccc12` [9(G), terbinafine hydrochloride], the “Zone size (mm)” value ([1]; hydrochloride) was 18 mm, the MIC ([2]; Trichophyton mentagrophytes, ATCC24953, 96 h, 80% growth inhibition, 35° C., 4 days) was 0.03 µg/mL and the MFC ([3]; Trichophyton mentagrophytes, ATCC24953, lowest concentration to produce 1-2 colonies) was 0.125 µg/mL. The “fungicidal efficacy as judged from MFC assays” value ([3]; in words) was “substantially equivalent”.
For `CN(C/C=C/C#CC(C)(C)C)Cc1cccc2ccccc12` [terbinafine hydrochloride], the “period for amount of terbinafine hydrochloride retained in the nail to reach equilibrium” value [4] was “about 10 hours”.
In the case of `CN(C/C=C/C#CC(C)(C)C)Cc1cccc2ccccc12` [terbinafine, (E)-N-(6,6-dimethyl-2-hepten-4-ynyl)-N-methyl-1-naphthalene methanamine], the “period to reach a concentration above the minimum inhibition concentration (MIC) for fungi across nail membrane” value [5] is reported as “about one”.

From patent US7462362B2, “Antifungal nail coat and method of use” (NexMed Holdings, Inc., priority 2003, dated 2008)
